Reference: article PMC5054527, “Mechanism of high affinity inhibition of the human urate transporter URAT1” (Scientific Reports, 2016)
Numbering of substitutions follows the chain as printed. Like-named read-outs stand apart in the source and are kept apart here.

Assays:
Assay in all cases: URAT1 uric acid transport activity assay
Format in all cases: cell-based
[1] = molecular target: T1, r-M481I rURAT1 point mutant (Rattus norvegicus, UniProt Q3ZAV1, M481I)
T1 sequence (Q3ZAV1 1-553 M481I): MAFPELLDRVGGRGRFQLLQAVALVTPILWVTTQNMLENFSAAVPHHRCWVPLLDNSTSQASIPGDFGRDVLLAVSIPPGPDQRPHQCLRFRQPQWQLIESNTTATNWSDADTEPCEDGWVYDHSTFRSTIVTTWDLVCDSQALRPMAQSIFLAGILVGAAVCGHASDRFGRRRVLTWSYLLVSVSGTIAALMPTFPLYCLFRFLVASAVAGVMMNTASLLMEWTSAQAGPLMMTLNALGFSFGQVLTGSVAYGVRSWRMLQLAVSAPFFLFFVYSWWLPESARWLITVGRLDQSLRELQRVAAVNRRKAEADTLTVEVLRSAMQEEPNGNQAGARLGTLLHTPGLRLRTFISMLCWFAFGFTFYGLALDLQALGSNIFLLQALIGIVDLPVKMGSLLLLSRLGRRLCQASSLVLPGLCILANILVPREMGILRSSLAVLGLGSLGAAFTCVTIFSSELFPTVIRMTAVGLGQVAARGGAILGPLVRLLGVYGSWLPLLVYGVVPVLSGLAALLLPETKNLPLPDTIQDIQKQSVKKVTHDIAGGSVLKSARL
Method in brief: (§1)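 Readout: 14C-uric acid uptake (100 μM, 10 min) in cells transiently transfected one day earlier with mutant rURAT1. Serially diluted inhibitors were added 5 min before substrate. Triplicate points, four-parameter logistic fit for IC50.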

[2] = molecular target: T2, r-M354T rURAT1 point mutant (Rattus norvegicus, UniProt Q3ZAV1, M354T)
T2 construct: expressed in transfected cells; host or cells: HEK-293T
T2 sequence (Q3ZAV1 1-553 M354T): T1 sequence (Q3ZAV1 1-553 M481I) with M354T, I481M
Method in brief: as §1

[3] = molecular target: T3, r-P27S rURAT1 point mutant (Rattus norvegicus, UniProt Q3ZAV1, P27S)
T3 sequence (Q3ZAV1 1-553 P27S): T1 sequence (Q3ZAV1 1-553 M481I) with P27S, I481M
Method in brief: as §1

CCc1oc2ccccc2c1C(=O)c1cc(Br)c(O)c(Br)c1 [benzbromarone] was tested, and the IC50 [1] was 15 ± 1.1 µM, the IC50 [2] was 18 ± 1.7 µM and the IC50 [3] was 16 ± 1.7 µM.

For O=C(O)CSc1nnc(Br)n1-c1ccc(C2CC2)c2ccccc12 [lesinurad, 2-((5-bromo-4-(4-cyclopropylnaphthalen-1-yl)-4H-1,2,4-triazol-3-yl)thio)acetic acid], the IC50 ([1]; r-M481I, MES pH 5.5, 100 μM 14C-uric acid, read-out: IC50 (uric acid transport)) was 71 ± 3 µM, the IC50 ([2]; r-M354T, MES pH 5.5, 100 μM 14C-uric acid, read-out: IC50 (uric acid transport)) was 56 ± 4.9 µM and the IC50 ([3]; r-P27S, MES pH 5.5, 100 μM 14C-uric acid, read-out: IC50 (uric acid transport)) was 77 ± 3.2 µM.

For O=C1C(CC[S+]([O-])c2ccccc2)C(=O)N(c2ccccc2)N1c1ccccc1 (centres unmarked) [sulfinpyrazone], the “fold increased affinity of r-M481I compared to rURAT1” value ([1]; from IC50 values) was 1.7 fold, the IC50 ([1]; r-M481I, HEPES pH 7.3, 100 μM 14C-uric acid, read-out: IC50 (uric acid transport)) was 395 ± 68 µM and the IC50 ([2]; r-M354T, HEPES pH 7.3, 100 μM 14C-uric acid, read-out: IC50 (uric acid transport)) was 304 ± 38 µM. For the same molecule, the “fold higher affinity of r-P27S compared to rURAT1” value ([3]; from IC50 values) was 2.1 fold and the IC50 ([3]; r-P27S, HEPES pH 7.3, 100 μM 14C-uric acid, read-out: IC50 (uric acid transport)) was 321 ± 77 µM.
